The test deals with Prothrombin (Homo sapiens, UniProt P00734). In words: In vitro inhibitory activity against human Prothrombin.

pIC50: −log10 of the molar value. Square brackets hold non-standard residues; d marks the D form. Peptide text beside a SMILES is read from it. Tic = O=C(O)[C@@H]1Cc2ccccc2CN1

For orientation: pIC50 means −log10 of the IC50, conventionally taken in molar units. The low end stands for a high IC50, the high end for a low IC50.

Consider `N=C(N)NCCC[C@@H](C=O)NC(=O)[C@@H]1CCCN1C(=O)[C@@H]1Cc2ccccc2CN1` (H-[Tic]-Pro-Arg-aldehyde), for which the pIC50 is 7.60.

In turn, `CC(C)(C)OC(=O)NC(C(=O)N1CCC[C@H]1C(=O)N[C@H](C=O)CCCN=C(N)N)c1cccc2ccccc12` (stereo in doubt; 12) had a pIC50 of 7.26.

The compound `CC(C)(C)OC(=O)N[C@@H](C(=O)N1CCC[C@H]1C(=O)N[C@H](C=O)CCCN=C(N)N)c1cccc(C(F)(F)F)c1` had a pIC50 of 7.57. This pIC50 is 0.31 log units higher than that of the compound before.

`C[C@@H](C(=O)N1CCC[C@H]1C(=O)N[C@H](C=O)CCCNC(=N)N)c1ccccc1` showed a pIC50 of 7.03. This pIC50 is 0.54 log units lower than that of the compound before.

As for `CC[C@@H](C(=O)N1CCC[C@H]1C(=O)N[C@H](C=O)CCCNC(=N)N)c1ccccc1`, the pIC50 is 6.89.

Consider `CC(C)(C)OC(=O)NC(C(=O)N1CCC[C@H]1C(=O)N[C@H](C=O)CCCN=C(N)N)c1cccc2ccccc12` (stereo in doubt; 13), for which the pIC50 was 7.07.

Regarding `CO[C@@H](C(=O)N1CCC[C@H]1C(=O)N[C@H](C=O)CCCN=C(N)N)c1ccccc1`, the pIC50 is 6.60. Compared with the last compound, the pIC50 is 0.47 log units lower.

Turning to `N=C(N)NCCC[C@@H](C=O)NC(=O)[C@@H]1CCCN1C(=O)[C@H]1NCCc2ccccc21`, the pIC50 was 7.72.

On to `CC(C)(C)OC(=O)N[C@@H](C(=O)N1CCC[C@H]1C(=O)N[C@H](C=O)CCCNC(=N)N)c1cccc2ccccc12`, for which the pIC50 was 7.64.

Take `C[C@H](C(=O)N1CCC[C@H]1C(=O)N[C@H](C=O)CCCNC(=N)N)c1ccccc1`: the pIC50 is 5.29. This pIC50 is 2.35 log units lower than that of the compound before.

`CC(C)(C)OC(=O)N[C@@H](C(=O)N1CCC[C@H]1C(=O)N[C@H](C=O)CCCNC(=N)N)c1ccc2ccccc2c1` had a pIC50 of 7.74. This pIC50 is 2.45 log units higher than that of the compound before.

(Values after ChEMBL document CHEMBL1130154, “Molecular modeling and 3D-QSAR studies on the interaction mechanism of tripeptidyl thrombin inhibitors with human alpha-thrombin” (J Med Chem, 1997).)
